Patent publication US20220233556A1, “COMPOSITIONS AND METHODS FOR TREATING OPHTHALMIC CONDITIONS” (Medicon Pharmaceuticals, Inc., priority 2017, published 2022)
Like-named read-outs stand apart in the source and are kept apart here.

Columns and labels:
[1] = PS levels in ocular tissues (HPLC) after topical 3.5% PS Vitamin E TPGS solution; type: in vivo, New Zealand white rabbits; conditions: New Zealand white, rabbit, 3.5 % PS solution (eye drops)
Protocol: Composition: 3.5% PS; 16% Vitamin E TPGS (d-α-tocopheryl polyethylene glycol 1000 succinate); 3.18% mannitol; 1.2% boric acid; 0.005% polyquaternium-1 (Polyquad). Alternatively, vitamin E TPGS may be replaced by other solubilizing agents. Polyquad is added as a preservative.
Preparation Method: Polyquad and Vitamin E TPGS were dissolved in purified water followed by addition of PS and stirring at 70° C. for 30 min. Then the solution was centrifuged to remove non-dissolved drug particles and the supernatant was collected, to which mannitol and boric acid were added. The final volume was adjusted with purified water after adjusting the pH to 6.7±0.2 with NaOH.
Results: The above PS formulation was administered topically as eye drops to the eyes of New Zealand white rabbits. The levels of PS in ocular tissues 1 h and 3 h later were determined by HPLC.

[2] = PS biodistribution after topical alternative gellan gum-based in-situ gel; type: in vivo, New Zealand white rabbits; conditions: New Zealand white, rabbit, alternative gellan gum 0.4% gel
Protocol: Composition: 2.4-3% PS; 0.4% Gellan gum; 10% Vitamin E TPGS; 5% (2-hydroxypropyl)-β-cyclodextrin.
Results: PS in this formulation was administered topically to the eyes of New Zealand white rabbits and its biodistribution was determined as above.

[3] = Biodistribution of PS nanoparticles after intravitreal injection; type: in vivo, New Zealand white rabbits; conditions: New Zealand white, rabbit
Protocol: Biodistribution of PS after intravitreal injection: PS formulated in nanoparticles as above was injected directly into the vitreous of New Zealand white rabbits. The biodistribution of PS in ocular tissues at the indicated time points post administration was determined by HPLC.

[4] = Biodistribution of PS in human cadaveric eyes (ex vivo), PS nanoparticle solution; type: in vitro ADME; conditions: human eye ex vivo
Protocol: Human cadaveric eyes were obtained through the Lions Eye Bank for Long Island, Valley Stream, N.Y. They were preserved on ice and used within 2 h from removal from the donors.
The anterior surface of the human eye (corresponding to an area slightly larger than the palpebral fissure) was brought into direct contact with a PS nanoparticle (NP) solution (PS concentrations were 0.2%, 1% and 2%) and treated as above for the solution formulations of PS. […]

[5] = aqueous humor, read-out: PS in Aqueous humor
[6] = choroid, read-out: PS in Choroid
[7] = conjunctiva, read-out: PS in Conjunctiva
[8] = aqueous humor, other: intravitreal, 2% PS Nanoparticle Soln., read-out: PS in Aqueous humor
[9] = cornea, other: intravitreal, 0.2% PS Nanoparticle Soln., read-out: PS in Cornea
[10] = cornea, other: intravitreal, 2% PS Nanoparticle Soln., read-out: PS in Cornea
[11] = retina, other: intravitreal, 0.2% PS Nanoparticle Soln., read-out: PS in Retina
[12] = retina, other: intravitreal, 2% PS Nanoparticle Soln., read-out: PS in Retina
[13] = sclera, other: intravitreal, 2% PS Nanoparticle Soln., read-out: PS in Sclera
[14] = vitreous body, other: intravitreal, 0.2% PS Nanoparticle Soln., read-out: PS in Vitreous body

## CCOP(=O)(OCC)OCCCCOC(=O)CC1=C(C)/C(=C/c2ccc([S+](C)[O-])cc2)c2ccc(F)cc21 (centres unmarked) [PS, phosphosulindac]
[1]; [5]
  concentration at 1 h: 2.3 µM
  concentration at 3 h: 0.1 µM
[1]; [6]
  concentration at 1 h: 3.2 µM
  concentration at 3 h: 0.2 µM
[1]; [7]
  concentration at 1 h: 9.3 µM
  concentration at 3 h: 0.5 µM
[1]; cornea, read-out: PS in Cornea
  concentration at 1 h: 6.9 µM
  concentration at 3 h: 0.8 µM
[1]; iris, read-out: PS in Iris
  concentration at 3 h: 0.9 µM
[1]; lacrimal gland, read-out: PS in Lacrimal gland
  concentration at 3 h: 0.5 µM
[1]; lens, read-out: PS in Lens
  concentration at 1 h: 1.8 µM
  concentration at 3 h: 0.1 µM
[1]; retina, read-out: PS in Retina
  concentration at 1 h: 2.7 µM
  concentration at 3 h: 0.2 µM
[1]; sclera, read-out: PS in Sclera
  concentration at 1 h: 2.3 µM
  concentration at 3 h: 0.2 µM
[1]; vitreous body, read-out: PS in Vitreous body
  concentration at 1 h: 3.6 µM
[2]; [5]
  concentration at 0.5 h: 0.6 µM
  concentration at 1 h: 0.4 µM
[2]; [7]
  concentration at 0.5 h: 37.7 µM
  concentration at 1 h: 20.8 µM
  concentration at 3 h: 0.7 µM
  concentration at 5 h: 1.1 µM
  concentration at 8 h: 0.7 µM
[2]; cornea, read-out: PS in Cornea
  concentration at 0.5 h: 24.3 µM
  concentration at 1 h: 50.8 µM
  concentration at 3 h: 1.5 µM
  concentration at 5 h: 1.1 µM
  concentration at 8 h: 1.6 µM
[3]; aqueous humor, other: intravitreal, 0.2% PS Nanoparticle Soln., read-out: PS in Aqueous humor
  concentration at 0.5 h: 0 µM
[3]; [8]
  concentration at 0.5 h: 0 µM
  concentration at 1 h: 1.3 µM
[3]; [9]
  concentration at 0.5 h: 23.5 µM
  concentration at 1 h: 22.4 µM
[3]; [10]
  concentration at 0.5 h: 187 µM
  concentration at 1 h: 147 µM
[3]; [11]
  concentration at 0.5 h: 187 µM
  concentration at 1 h: 109 µM
[3]; [12]
  concentration at 0.5 h: 376 µM
  concentration at 1 h: 220 µM
[3]; sclera, other: intravitreal, 0.2% PS Nanoparticle Soln., read-out: PS in Sclera
  concentration at 0.5 h: 39.8 µM
[3]; [13]
  concentration at 0.5 h: 224 µM
  concentration at 1 h: 180 µM
[3]; vitreous body, other: intravitreal injection, 2 % PS (nanoparticle solution; injected volume not stated), 2% PS Nanoparticle Soln., read-out: PS in Vitreous body
  concentration at 0.5 h: 125 µM
[3]; [14]
  concentration at 0.5 h: 198 µM
  concentration at 1 h: 56.2 µM
[3]; vitreous body, other: intravitreal, 2% PS Nanoparticle Soln., read-out: PS in Vitreous body
  concentration at 1 h: 34 µM
[4]; 0.2% PS-NPs
  PS in Cornea: 22.8 µM
  PS in Iris: 8.0 µM
  PS in Lens: 0.4 µM
  PS in Retina: 2.2 µM
  PS in Sclera: 30.7 µM
[4]; 1% PS-NPs
  PS in Cornea: 58.8 µM
  PS in Iris: 35.5 µM
  PS in Lens: 1.6 µM
  PS in Retina: 4.8 µM
  PS in Sclera: 152.0 µM
[4]; 2% PS-NPs
  PS in Cornea: 92.7 µM
  PS in Iris: 17.4 µM
  PS in Lens: 0.6 µM
  PS in Retina: 1.2 µM
  PS in Sclera: 113.0 µM
